Tests used:
5-HT1C receptor = experiment: pharmacological studies, 5-HT1C receptor activity
migraine pain = experiment: Utility tests for migraine analgesic activity (mouse writhing, acetic acid-induced writhing, protein extravasation and related tests); assay type: in vivo, mice; rats; guinea pigs; rabbits; details: summary statement for the utility tests, no values given
[1] = tested on: muscarinic cholinergic receptor; experiment: pharmacological studies, muscarinic cholinergic receptor activity

## Cc1cc2c(s1)Nc1ccccc1N=C2N1CCN(C)CC1 [olanzapine, 2-methyl-4-(4-methyl-1-piperazinyl)-10H-thieno[2,3-b][1,5]benzodiazepine]
5-HT1C receptor
  activity at the 5-HT1C receptor: active
Migraine pain
  migraine pain analgesic effect: can provide a significant migraine pain analgesic effect
[1]
  muscarinic cholinergic receptor activity: has muscarinic cholinergic receptor activity

— US5929070A (Eli Lilly and Company, priority 1997, dated 1999)
